Reference: ChEMBL document CHEMBL3045092, “Synthesis and Fungicidal Activity of 2-Imino-3-(4-arylthiazol-2-yl)-thiazolidin-4-ones and Their 5-Arylidene Derivatives” (2000)

Key:
Assay type in all cases: functional
Conditions in all cases: read-out: GI
Pyricularia oryzae = experiment: Fungicidal activity against Magnaporthe oryzae assessed as growth inhibition at 50 ppm after 48 hr relative to untreated control
Aspergillus niger = experiment: Fungicidal activity against Aspergillus niger assessed as growth inhibition at 50 ppm after 48 hr relative to untreated control
Pleurotus ostreatus = experiment: Fungicidal activity against Pleurotus ostreatus assessed as growth inhibition at 50 ppm after 48 hr relative to untreated control
Gaeumannomyces graminis = experiment: Fungicidal activity against Gaeumannomyces graminis assessed as growth inhibition at 50 ppm after 48 hr relative to untreated control
Botrytis cinerea = experiment: Fungicidal activity against Botryotinia fuckeliana assessed as growth inhibition at 50 ppm after 48 hr relative to untreated control
Pythium aphanidermatum = experiment: Fungicidal activity against Pythium aphanidermatum assessed as growth inhibition at 50 ppm after 48 hr relative to untreated control
Fusarium graminearum = experiment: Fungicidal activity against Fusarium graminearum assessed as growth inhibition at 50 ppm after 48 hr relative to untreated control

N=C1S/C(=C\c2ccccc2[N+](=O)[O-])C(=O)N1c1nc(-c2ccc(Cl)cc2)cs1
inhibition of growth at 50 ppm (Pyricularia oryzae): 14.8%
inhibition of growth at 50 ppm (Aspergillus niger): 60.8%
inhibition of growth at 50 ppm (Pleurotus ostreatus): 84.8%
inhibition of growth at 50 ppm (Gaeumannomyces graminis): 0%
inhibition of growth at 50 ppm (Botrytis cinerea): 66.7%
inhibition of growth at 50 ppm (Pythium aphanidermatum): 12.5%
inhibition of growth at 50 ppm (Fusarium graminearum): 58.8%

N=C1S/C(=C\c2cccc([N+](=O)[O-])c2)C(=O)N1c1nc(-c2ccc([N+](=O)[O-])cc2)cs1
inhibition of growth at 50 ppm (Pyricularia oryzae): 0%
inhibition of growth at 50 ppm (Aspergillus niger): 52.3%
inhibition of growth at 50 ppm (Pleurotus ostreatus): 29.8%
inhibition of growth at 50 ppm (Gaeumannomyces graminis): 0%
inhibition of growth at 50 ppm (Botrytis cinerea): 4.7%
inhibition of growth at 50 ppm (Pythium aphanidermatum): 0%
inhibition of growth at 50 ppm (Fusarium graminearum): 51.6%

N=C1S/C(=C\c2ccccc2[N+](=O)[O-])C(=O)N1c1nc(-c2ccc([N+](=O)[O-])cc2)cs1
inhibition of growth at 50 ppm (Pyricularia oryzae): 3.2%
inhibition of growth at 50 ppm (Aspergillus niger): 62.8%
inhibition of growth at 50 ppm (Pleurotus ostreatus): 7.2%
inhibition of growth at 50 ppm (Gaeumannomyces graminis): 0%
inhibition of growth at 50 ppm (Botrytis cinerea): 33.3%
inhibition of growth at 50 ppm (Pythium aphanidermatum): 16.3%
inhibition of growth at 50 ppm (Fusarium graminearum): 24.7%

N=C1SCC(=O)N1c1nc(-c2cc(F)c(Cl)cc2Cl)cs1
inhibition of growth at 50 ppm (Pyricularia oryzae): 76.3%
inhibition of growth at 50 ppm (Aspergillus niger): 58.8%
inhibition of growth at 50 ppm (Pleurotus ostreatus): 95%
inhibition of growth at 50 ppm (Gaeumannomyces graminis): 91.3%
inhibition of growth at 50 ppm (Botrytis cinerea): 38.2%
inhibition of growth at 50 ppm (Pythium aphanidermatum): 12.5%
inhibition of growth at 50 ppm (Fusarium graminearum): 38.8%

N=C1SCC(=O)N1c1nc(-c2ccc(Cl)cc2)cs1
inhibition of growth at 50 ppm (Pyricularia oryzae): 58.8%
inhibition of growth at 50 ppm (Aspergillus niger): 52.3%
inhibition of growth at 50 ppm (Pleurotus ostreatus): 72.4%
inhibition of growth at 50 ppm (Gaeumannomyces graminis): 51.3%
inhibition of growth at 50 ppm (Botrytis cinerea): 0%
inhibition of growth at 50 ppm (Pythium aphanidermatum): 3.8%
inhibition of growth at 50 ppm (Fusarium graminearum): 29.7%

N=C1S/C(=C\c2ccccc2Cl)C(=O)N1c1nc(-c2ccc(Cl)cc2)cs1
inhibition of growth at 50 ppm (Pyricularia oryzae): 0%
inhibition of growth at 50 ppm (Aspergillus niger): 40.8%
inhibition of growth at 50 ppm (Pleurotus ostreatus): 0%
inhibition of growth at 50 ppm (Gaeumannomyces graminis): 0%
inhibition of growth at 50 ppm (Botrytis cinerea): 0%
inhibition of growth at 50 ppm (Pythium aphanidermatum): 46.2%
inhibition of growth at 50 ppm (Fusarium graminearum): 31.8%

N=C1S/C(=C\c2cccc([N+](=O)[O-])c2)C(=O)N1c1nc(-c2ccccc2)cs1
inhibition of growth at 50 ppm (Pyricularia oryzae): 3.2%
inhibition of growth at 50 ppm (Aspergillus niger): 49.7%
inhibition of growth at 50 ppm (Pleurotus ostreatus): 5.9%
inhibition of growth at 50 ppm (Gaeumannomyces graminis): 0%
inhibition of growth at 50 ppm (Botrytis cinerea): 0%
inhibition of growth at 50 ppm (Pythium aphanidermatum): 25%
inhibition of growth at 50 ppm (Fusarium graminearum): 20.6%

N=C1SCC(=O)N1c1nc(-c2ccccc2)cs1
inhibition of growth at 50 ppm (Pyricularia oryzae): 58.8%
inhibition of growth at 50 ppm (Aspergillus niger): 54.3%
inhibition of growth at 50 ppm (Pleurotus ostreatus): 82.6%
inhibition of growth at 50 ppm (Gaeumannomyces graminis): 60%
inhibition of growth at 50 ppm (Botrytis cinerea): 3.5%
inhibition of growth at 50 ppm (Pythium aphanidermatum): 8.8%
inhibition of growth at 50 ppm (Fusarium graminearum): 21.1%

N=C1S/C(=C\c2ccccc2Cl)C(=O)N1c1nc(-c2ccccc2)cs1
inhibition of growth at 50 ppm (Pyricularia oryzae): 0%
inhibition of growth at 50 ppm (Aspergillus niger): 23.6%
inhibition of growth at 50 ppm (Pleurotus ostreatus): 0%
inhibition of growth at 50 ppm (Gaeumannomyces graminis): 0%
inhibition of growth at 50 ppm (Botrytis cinerea): 27.5%
inhibition of growth at 50 ppm (Pythium aphanidermatum): 17.2%
inhibition of growth at 50 ppm (Fusarium graminearum): 37.4%

N=C1S/C(=C\c2ccccc2[N+](=O)[O-])C(=O)N1c1nc(-c2cc(F)c(Cl)cc2Cl)cs1
inhibition of growth at 50 ppm (Pyricularia oryzae): 50.4%
inhibition of growth at 50 ppm (Aspergillus niger): 49.7%
inhibition of growth at 50 ppm (Pleurotus ostreatus): 15.2%
inhibition of growth at 50 ppm (Gaeumannomyces graminis): 0%
inhibition of growth at 50 ppm (Botrytis cinerea): 2%
inhibition of growth at 50 ppm (Pythium aphanidermatum): 0%
inhibition of growth at 50 ppm (Fusarium graminearum): 48.5%

N=C1S/C(=C\c2ccccc2[N+](=O)[O-])C(=O)N1c1nc(-c2ccccc2)cs1
inhibition of growth at 50 ppm (Pyricularia oryzae): 20.2%
inhibition of growth at 50 ppm (Aspergillus niger): 54.3%
inhibition of growth at 50 ppm (Pleurotus ostreatus): 84.1%
inhibition of growth at 50 ppm (Gaeumannomyces graminis): 0%
inhibition of growth at 50 ppm (Botrytis cinerea): 64.7%
inhibition of growth at 50 ppm (Pythium aphanidermatum): 3.8%
inhibition of growth at 50 ppm (Fusarium graminearum): 61.9%

N=C1SCC(=O)N1c1nc(-c2ccc([N+](=O)[O-])cc2)cs1
inhibition of growth at 50 ppm (Pyricularia oryzae): 38.1%
inhibition of growth at 50 ppm (Aspergillus niger): 56.2%
inhibition of growth at 50 ppm (Pleurotus ostreatus): 12.4%
inhibition of growth at 50 ppm (Gaeumannomyces graminis): 26.7%
inhibition of growth at 50 ppm (Botrytis cinerea): 0%
inhibition of growth at 50 ppm (Pythium aphanidermatum): 8.8%
inhibition of growth at 50 ppm (Fusarium graminearum): 2.2%

N=C1S/C(=C\c2ccccc2Cl)C(=O)N1c1nc(-c2ccc([N+](=O)[O-])cc2)cs1
inhibition of growth at 50 ppm (Pyricularia oryzae): 2.1%
inhibition of growth at 50 ppm (Aspergillus niger): 42.7%
inhibition of growth at 50 ppm (Pleurotus ostreatus): 0%
inhibition of growth at 50 ppm (Gaeumannomyces graminis): 37.1%
inhibition of growth at 50 ppm (Botrytis cinerea): 60.8%
inhibition of growth at 50 ppm (Pythium aphanidermatum): 28%
inhibition of growth at 50 ppm (Fusarium graminearum): 28%

N=C1SCC(=O)N1c1nc(-c2ccc(Cl)cc2Cl)cs1
inhibition of growth at 50 ppm (Pyricularia oryzae): 79.4%
inhibition of growth at 50 ppm (Aspergillus niger): 62.8%
inhibition of growth at 50 ppm (Pleurotus ostreatus): 97.2%
inhibition of growth at 50 ppm (Gaeumannomyces graminis): 86.7%
inhibition of growth at 50 ppm (Botrytis cinerea): 0%
inhibition of growth at 50 ppm (Pythium aphanidermatum): 0%
inhibition of growth at 50 ppm (Fusarium graminearum): 48.6%

N=C1S/C(=C\c2cccc([N+](=O)[O-])c2)C(=O)N1c1nc(-c2cc(F)c(Cl)cc2Cl)cs1
inhibition of growth at 50 ppm (Pyricularia oryzae): 11.7%
inhibition of growth at 50 ppm (Aspergillus niger): 69.3%
inhibition of growth at 50 ppm (Pleurotus ostreatus): 32.6%
inhibition of growth at 50 ppm (Gaeumannomyces graminis): 0%
inhibition of growth at 50 ppm (Botrytis cinerea): 24.7%
inhibition of growth at 50 ppm (Pythium aphanidermatum): 33.8%
inhibition of growth at 50 ppm (Fusarium graminearum): 45.4%

N=C1S/C(=C\c2ccccc2)C(=O)N1c1nc(-c2cc(F)c(Cl)cc2Cl)cs1
inhibition of growth at 50 ppm (Pyricularia oryzae): 4.1%
inhibition of growth at 50 ppm (Aspergillus niger): 47.7%
inhibition of growth at 50 ppm (Pleurotus ostreatus): 11.5%
inhibition of growth at 50 ppm (Gaeumannomyces graminis): 0%
inhibition of growth at 50 ppm (Botrytis cinerea): 28.7%
inhibition of growth at 50 ppm (Pythium aphanidermatum): 0%
inhibition of growth at 50 ppm (Fusarium graminearum): 38.1%

N=C1S/C(=C\c2cccc([N+](=O)[O-])c2)C(=O)N1c1nc(-c2ccc(Cl)cc2)cs1
inhibition of growth at 50 ppm (Pyricularia oryzae): 26.5%
inhibition of growth at 50 ppm (Aspergillus niger): 58.8%
inhibition of growth at 50 ppm (Pleurotus ostreatus): 84.1%
inhibition of growth at 50 ppm (Gaeumannomyces graminis): 0%
inhibition of growth at 50 ppm (Botrytis cinerea): 71.3%
inhibition of growth at 50 ppm (Pythium aphanidermatum): 16.3%
inhibition of growth at 50 ppm (Fusarium graminearum): 61.9%
